Measurements taken from ChEMBL document CHEMBL4680261, “DDX3X inhibitors, an effective way to overcome HIV-1 resistance targeting host proteins” (Eur J Med Chem, 2020).
Values belong to the compound of their own block, whether it stands above or below them.

Legend:
[1] = target: ATP-dependent RNA helicase DDX3X (Homo sapiens, UniProt O00571); assay: Inhibition of human DDX3X using dsRNA as substrate measured every 30 sec for 40 mins by FRET assay
[2] = test system: Human immunodeficiency virus 1; assay: (§1) Antiviral activity against HIV-1 NL4-3 infected in human TZM-bl cells infected with supernatants from virus-infected human H9 cells treated with compound for 72 hrs assessed as reduction in luciferase expression measured after 48 hrs by luciferase reporter gene assay based BiCycle assay; type: functional, organism-based; conditions: Human immunodeficiency virus 1, NL4-3
[3] = Apparent permeability of compound incubated for 5 hrs by PAMPA assay; type: ADME
[4] = Metabolic stability in human liver microsomes assessed as parent compound remaining measured after 60 mins by LC-UV-MS analysis; type: ADME, Microsome; conditions: read-out: Stabilty
[5] = test system: Human immunodeficiency virus 1; assay: as §1, with “11808 harboring protease V32I/I54V/I84V/L90M mutant” for “NL4-3”; type: functional, organism-based; conditions: Human immunodeficiency virus 1, 11808
[6] = test system: Human immunodeficiency virus 1; assay: as §1, with “7400 harboring nucleos(t)ide reverse transcriptase M41L/E44D/D67N/T69D/M184VL210W/T215Y mutant” for “NL4-3”; type: functional, organism-based; conditions: Human immunodeficiency virus 1, 7400
[7] = test system: Human immunodeficiency virus 1; assay: as §1, with “11847 harboring integrase G140S/Q148H mutant” for “NL4-3”; type: functional, organism-based; conditions: Human immunodeficiency virus 1, 11847
[8] = test system: Human immunodeficiency virus 1; assay: as §1, with “12231 harboring non-nucleoside reverse transcriptase K103N/V179F/Y181C mutant” for “NL4-3”; type: functional, organism-based; conditions: Human immunodeficiency virus 1, 12231
[9] = (§2) Selectivity index, ratio of IC50 for antiviral activity against HIV-1 11808 harboring protease V32I/I54V/I84V/L90M mutant infected in human TZM-bl cells infected with supernatants from virus-infected human H9 cells to IC50 for antiviral activity against HIV-1 […] infected in human TZM-bl cells infected with supernatants from virus-infected human H9 cells; type: functional, Human immunodeficiency virus 1
[10] = as §2, with “7400” for “11808”, “nucleos(t)ide reverse transcriptase M41L/E44D/D67N/T69D/M184VL210W/T215Y” for “protease V32I/I54V/I84V/L90M”; type: functional, Human immunodeficiency virus 1
[11] = as §2, with “11847” for “11808”, “integrase G140S/Q148H” for “protease V32I/I54V/I84V/L90M”; type: functional, Human immunodeficiency virus 1
[12] = as §2, with “12231” for “11808”, “non-nucleoside reverse transcriptase K103N/V179F/Y181C” for “protease V32I/I54V/I84V/L90M”; type: functional, Human immunodeficiency virus 1
[13] = Half life in BALB/c mouse at 8 mg/kg, iv measured upto 24 hrs by HPLC-MS analysis; type: ADME, organism-based; conditions: in vivo
[14] = Cmax in BALB/c mouse at 8 mg/kg, iv measured upto 24 hrs by HPLC-MS analysis; type: ADME, organism-based; design: route intravenous, dose 8 mg/kg, time <=24; conditions: in vivo
[15] = AUC (0 to t) in BALB/c mouse at 8 mg/kg, iv measured upto 24 hrs by HPLC-MS analysis; type: ADME, organism-based; design: route intravenous, dose 8 mg/kg, time <=24; conditions: in vivo
[16] = Observed AUC (0 to infinity) in BALB/c mouse at 8 mg/kg, iv measured upto 24 hrs by HPLC-MS analysis; type: ADME, organism-based; design: route intravenous, dose 8 mg/kg, time <=24; conditions: in vivo
[17] = Observed volume of distribution at steady state in BALB/c mouse at 8 mg/kg, iv measured upto 24 hrs by HPLC-MS analysis; type: ADME, organism-based; conditions: in vivo, read-out: Vdss
[18] = Observed clearance in BALB/c mouse at 8 mg/kg, iv measured upto 24 hrs by HPLC-MS analysis; type: ADME, organism-based; conditions: in vivo
[19] = Half life in BALB/c mouse at 16 mg/kg, iv measured upto 24 hrs by HPLC-MS analysis; type: ADME, organism-based; conditions: in vivo
[20] = Cmax in BALB/c mouse at 16 mg/kg, iv measured upto 24 hrs by HPLC-MS analysis; type: ADME, organism-based; design: route intravenous, dose 16 mg/kg, time <=24; conditions: in vivo
[21] = AUC (0 to t) in BALB/c mouse at 16 mg/kg, iv measured upto 24 hrs by HPLC-MS analysis; type: ADME, organism-based; design: route intravenous, dose 16 mg/kg, time <=24; conditions: in vivo
[22] = Observed AUC (0 to infinity) in BALB/c mouse at 16 mg/kg, iv measured upto 24 hrs by HPLC-MS analysis; type: ADME, organism-based; design: route intravenous, dose 16 mg/kg, time <=24; conditions: in vivo
[23] = Observed volume of distribution at steady state in BALB/c mouse at 16 mg/kg, iv measured upto 24 hrs by HPLC-MS analysis; type: ADME, organism-based; conditions: in vivo, read-out: Vdss
[24] = Observed clearance in BALB/c mouse at 16 mg/kg, iv measured upto 24 hrs by HPLC-MS analysis; type: ADME, organism-based; conditions: in vivo
[25] = Half life in BALB/c mouse at 32 mg/kg, iv measured upto 24 hrs by HPLC-MS analysis; type: ADME, organism-based; conditions: in vivo
[26] = Cmax in BALB/c mouse at 32 mg/kg, iv measured upto 24 hrs by HPLC-MS analysis; type: ADME, organism-based; design: route intravenous, dose 32 mg/kg, time <=24; conditions: in vivo
[27] = AUC (0 to t) in BALB/c mouse at 32 mg/kg, iv measured upto 24 hrs by HPLC-MS analysis; type: ADME, organism-based; design: route intravenous, dose 32 mg/kg, time <=24; conditions: in vivo
[28] = Observed AUC (0 to infinity) in BALB/c mouse at 32 mg/kg, iv measured upto 24 hrs by HPLC-MS analysis; type: ADME, organism-based; design: route intravenous, dose 32 mg/kg, time <=24; conditions: in vivo
[29] = Tmax in BALB/c mouse at 16 to 32 mg/kg, iv measured upto 24 hrs; type: ADME, organism-based; conditions: in vivo, dose 16-32 mg/kg
[30] = Drug excretion in BALB/c mouse at 16 to 32 mg/kg, iv measured upto 24 hrs; type: ADME, organism-based; conditions: in vivo, dose 16-32 mg/kg, read-out: Drug excretion
[31] = Drug uptake in BALB/c mouse brain at 16 to 32 mg/kg, iv measured upto 24 hrs; type: ADME, organism-based; conditions: in vivo, dose 16-32 mg/kg
[32] = Drug uptake in BALB/c mouse spleen at 16 to 32 mg/kg, iv measured upto 24 hrs; type: ADME, organism-based; conditions: in vivo, dose 16-32 mg/kg
[33] = Plasma concentration in BALB/c mouse at 16 to 32 mg/kg, iv measured after 240 mins; type: ADME, organism-based; conditions: dose 16-32 mg/kg
[34] = Plasma concentration in BALB/c mouse at 16 to 32 mg/kg, iv measured after 24 hrs; type: ADME, organism-based; conditions: dose 16-32 mg/kg
[35] = Toxicity in BALB/c mouse assessed as reduction in body weight at 32 mg/kg, iv administered three times a week for 3 weeks; type: organism-based; conditions: in vivo, 504 h
[36] = Toxicity in BALB/c mouse assessed as organism death at 32 mg/kg, iv administered three times a week for 3 weeks; type: organism-based; conditions: in vivo, 504 h
[37] = Toxicity in BALB/c mouse assessed as effect on liver at 32 mg/kg, iv administered three times a week for 3 weeks by hematoxylin and eosin staining based microscopic imaging analysis; type: organism-based; conditions: in vivo, 504 h
[38] = Toxicity in BALB/c mouse assessed as effect on kidney at 32 mg/kg, iv administered three times a week for 3 weeks by hematoxylin and eosin staining based microscopic imaging analysis; type: organism-based; conditions: in vivo, 504 h
[39] = Toxicity in BALB/c mouse assessed as effect on brain at 32 mg/kg, iv administered three times a week for 3 weeks by hematoxylin and eosin staining based microscopic imaging analysis; type: organism-based; conditions: in vivo, 504 h

Chain of ATP-dependent RNA helicase DDX3X (O00571 whole entry): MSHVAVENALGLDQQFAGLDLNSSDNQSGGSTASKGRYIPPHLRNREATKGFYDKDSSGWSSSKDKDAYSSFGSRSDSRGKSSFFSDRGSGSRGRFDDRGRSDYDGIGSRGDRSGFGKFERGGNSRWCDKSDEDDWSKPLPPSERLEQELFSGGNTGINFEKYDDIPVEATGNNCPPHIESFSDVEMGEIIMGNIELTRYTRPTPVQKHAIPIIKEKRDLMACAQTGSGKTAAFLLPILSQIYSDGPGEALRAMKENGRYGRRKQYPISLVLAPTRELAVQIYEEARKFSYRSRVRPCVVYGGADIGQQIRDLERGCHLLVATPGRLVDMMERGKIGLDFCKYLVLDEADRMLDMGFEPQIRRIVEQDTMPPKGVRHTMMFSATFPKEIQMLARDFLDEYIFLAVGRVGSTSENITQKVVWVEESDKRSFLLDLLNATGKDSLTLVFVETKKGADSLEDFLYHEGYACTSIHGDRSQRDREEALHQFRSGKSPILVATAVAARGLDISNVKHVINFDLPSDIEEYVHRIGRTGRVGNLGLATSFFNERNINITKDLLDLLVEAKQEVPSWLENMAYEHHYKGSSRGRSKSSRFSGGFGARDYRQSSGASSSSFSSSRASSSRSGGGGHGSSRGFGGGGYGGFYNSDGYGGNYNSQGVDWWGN

SMILES: CC(C)CCc1cn(-c2ccc(NC(=O)Nc3cccc4cnccc34)cc2)nn1
IC50 [2]: 2.1 µM
IC50 ([1]; read-out: IC50): 0.12 µM
IC50 [5]: 2.3 µM
IC50 [6]: 1.8 µM
IC50 [7]: 1.5 µM
IC50 [8]: 1.8 µM
Ratio IC50 [9]: 1.1
Ratio IC50 [10]: 0.8
Ratio IC50 [11]: 0.7
Ratio IC50 [12]: 0.8
Papp at 5 h [3]: 0.18 ×10⁻⁶ cm/s
remaining at 1 h [4]: 89.7%
half-life [13]: 8.97 h
Cmax [14]: 5500 ng/mL
AUC(0-t) at 24 h [15]: 25600 ng·h/mL
AUC(0-inf) [16]: 30700 ng·h/mL
Vd [17]: 3.4 L/kg
clearance [18]: 4.3 mL/min/kg
half-life [19]: 7.76 h
Cmax [20]: 15800 ng/mL
AUC(0-t) at 24 h [21]: 23700 ng·h/mL
AUC(0-inf) [22]: 25700 ng·h/mL
Vd [23]: 7 L/kg
clearance [24]: 8 mL/min/kg
t1/2 [25]: 4.682 h
Cmax [26]: 44400 ng/mL
AUC(0-t) at 24 h [27]: 98500 ng·h/mL
AUC [28]: 6114.4 µg·min/mL
Tmax [29]: 1 h
dose excreted at 24 h [30]: 100%
Drug uptake [31]: Not Active
Drug uptake [32]: Active
concentration at 4 h [33]: 10 µM
concentration at 24 h [34]: 2 µM
Activity [35]: Non-Toxic
Activity [36]: Non-Toxic
Activity [37]: Non-Toxic
Activity [38]: Non-Toxic
Activity [39]: Non-Toxic

SMILES: CCCCc1cn(-c2ccc(NC(=O)Nc3cc(O)ccc3C)cc2)nn1
IC50 ([1]; read-out: IC50): 0.49 µM

SMILES: CCCCc1cn(-c2ccc(NC(=O)Nc3cc(O[C@H]4O[C@@H](CO)[C@H](O)[C@@H]4O)ccc3C)cc2)nn1
IC50 [2]: > 50 µM
IC50 [1]: Not Active

SMILES: O=C(Nc1ccc(-n2cc(CCO)nn2)cc1)Nc1ccccc1C(F)(F)F
IC50 [2]: > 50 µM
IC50 ([1]; read-out: IC50): 11.2 µM

SMILES: CC(C)CC(=O)OCCc1cn(-c2ccc(NC(=O)Nc3ccccc3C(F)(F)F)cc2)nn1
IC50 [2]: > 50 µM
Papp at 5 h [3]: 4.24 ×10⁻⁶ cm/s
remaining at 1 h [4]: 49.3%

SMILES: Cc1ccccc1NC(=O)Nc1ccc(-n2cc(CCN3CCOCC3)nn2)cc1
IC50 ([1]; read-out: IC50): 59.7 µM

SMILES: Cc1ccccc1NC(=O)Nc1ccc(-n2cc(CCCN3CCOCC3)nn2)cc1
IC50 ([1]; read-out: IC50): 53.8 µM

SMILES: CCCCc1cn(-c2ccc(NC(=O)Nc3ccccc3C)cc2)nn1
IC50 [2]: 1.11 µM

SMILES: CCCCc1cn(-c2ccc(NC(=O)Nc3cc(OP(=O)(OCC)OCC)ccc3C)cc2)nn1
IC50 [2]: 5.5 µM
IC50 ([1]; read-out: IC50): 0.94 µM
Papp at 5 h [3]: 0.68 ×10⁻⁶ cm/s
remaining at 1 h [4]: 85.2%

SMILES: CCCCc1cn(-c2ccc(NC(=O)Nc3cc(OC4CCCC4)ccc3C)cc2)nn1
IC50 [2]: 0.2 µM
IC50 ([1]; read-out: IC50): 0.14 µM
Papp at 5 h [3]: 1.96 ×10⁻⁶ cm/s
remaining at 1 h [4]: 92.5%

SMILES: COCCc1cn(-c2ccc(NC(=O)Nc3ccccc3C)cc2)nn1
remaining at 1 h [4]: 94.2%

SMILES: Cc1ccccc1NC(=O)Nc1ccc(-n2cc(CCO)nn2)cc1
IC50 ([1]; read-out: IC50): 13 µM

SMILES: CCOCc1cn(-c2ccc(NC(=O)Nc3cc(C(C)C)ccc3C)cc2)nn1
IC50 [2]: 3.8 µM
IC50 ([1]; read-out: IC50): 1.51 µM

SMILES: CCOP(=O)(OCC)OCCc1cn(-c2ccc(NC(=O)Nc3ccccc3C)cc2)nn1
IC50 [2]: > 50 µM
Papp at 5 h [3]: 0.72 ×10⁻⁶ cm/s
remaining at 1 h [4]: 53.7%

Other lines, results leading:

IC50 ([1]; read-out: IC50): 2.49 µM
SMILES: CCCCc1cn(-c2ccc(NC(=O)Nc3cc(CCC(C)=O)ccc3C)cc2)nn1

IC50 [2]: 2.2 µM
IC50 ([1]; read-out: IC50): 0.15 µM
Papp at 5 h [3]: < 0.1 ×10⁻⁶ cm/s
remaining at 1 h [4]: 95.2%
SMILES: CCCCc1cn(-c2ccc(NC(=O)Nc3cccc4cnccc34)cc2)nn1

IC50 ([1]; read-out: IC50): 0.82 µM
SMILES: CCCCc1cn(-c2ccc(NC(=O)Nc3cc(OCOC)ccc3C)cc2)nn1

IC50 [1]: Not Active
SMILES: O=C(Nc1ccc(-n2cc(CCO[C@H]3O[C@@H](CO)[C@H](O)[C@@H]3O)nn2)cc1)Nc1ccccc1C(F)(F)F

IC50 [2]: > 50 µM
IC50 ([1]; read-out: IC50): 2.02 µM
Papp at 5 h [3]: 1.56 ×10⁻⁶ cm/s
remaining at 1 h [4]: 16.9%
SMILES: CCOC(=O)CCc1cn(-c2ccc(NC(=O)Nc3ccccc3C(F)(F)F)cc2)nn1

IC50 [1]: Not Active
SMILES: Cc1ccccc1NC(=O)Nc1ccc(-n2cc(CN3CCOCC3)nn2)cc1

IC50 [2]: 2.6 µM
IC50 ([1]; read-out: IC50): 0.1 µM
SMILES: CCCCc1cn(-c2ccc(NC(=O)Nc3cc(OC4CCOC4)ccc3C)cc2)nn1 (centres undefined)
